Reference: US20240132457A1, “3-(2-(BENZO[D]THIAZOL-2-YL)-2-(PHENYLSUFONAMIDO)ETHYL)BENZIMIDAMIDE DERIVATIVES AND RELATED COMPOUNDS AS TMPRSS2 INHIBITORS FOR THE TREATMENT OF VIRAL INFECTIONS” (INTEGERBIO, INC., priority 2020, published 2024)

Legend:
Type in all cases: biochemical
Conditions in all cases: 10-dose, 3-fold from 10 μM
[1] = biological target: T1, Kallikrein 14 (Homo sapiens, UniProt Q9P0G3); assay: Non-TMPRSS2 protease panel: Kallikrein 14
T1 sequence (Q9P0G3 25-251): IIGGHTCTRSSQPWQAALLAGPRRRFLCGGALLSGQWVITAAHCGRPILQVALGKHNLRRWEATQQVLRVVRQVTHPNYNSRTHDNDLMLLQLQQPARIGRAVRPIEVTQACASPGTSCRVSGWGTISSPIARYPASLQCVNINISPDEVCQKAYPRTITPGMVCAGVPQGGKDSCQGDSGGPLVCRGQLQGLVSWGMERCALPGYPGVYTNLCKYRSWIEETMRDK
Experimental: (§1) Biochemical activity of compound 1 (racemic mixture, batch 1), compound 3 (racemic), compound 11, and compound 2 (enantiomer 1, batch 1) in proteases indicated in Table 21, Table 22, Table 23, and Table 24, respectively, were measured by testing the compounds in a 10-dose IC50 with a 3-fold series dilution starting at 10 μM against the proteases. The protease activities were monitored as a time-course measurement of the increase in fluorescence signal from fluorescently-labeled peptide substrate, and initial linear portion of slope (signal/min) was analyzed. The curve fits were performed when the activities at the highest concentration of compounds were less than 65%.

[2] = biological target: Tryptase g1 (Homo sapiens, UniProt Q9NRR2); assay: Non-TMPRSS2 protease panel: Tryptase g1
Tryptase g1, sequence (Q9NRR2 20-321): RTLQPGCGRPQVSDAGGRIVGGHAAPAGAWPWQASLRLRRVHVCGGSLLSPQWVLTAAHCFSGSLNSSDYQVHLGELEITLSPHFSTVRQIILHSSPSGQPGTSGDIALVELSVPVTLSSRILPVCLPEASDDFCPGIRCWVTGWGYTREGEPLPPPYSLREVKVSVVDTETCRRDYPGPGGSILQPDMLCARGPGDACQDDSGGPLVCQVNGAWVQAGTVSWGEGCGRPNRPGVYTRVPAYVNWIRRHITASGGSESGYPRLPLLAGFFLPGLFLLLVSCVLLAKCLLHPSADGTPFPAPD
Experimental: as §1

[3] = biological target: T2, MMP 2 (Homo sapiens, UniProt P08253); assay: Non-TMPRSS2 protease panel: MMP 2
T2 sequence (P08253 110-660): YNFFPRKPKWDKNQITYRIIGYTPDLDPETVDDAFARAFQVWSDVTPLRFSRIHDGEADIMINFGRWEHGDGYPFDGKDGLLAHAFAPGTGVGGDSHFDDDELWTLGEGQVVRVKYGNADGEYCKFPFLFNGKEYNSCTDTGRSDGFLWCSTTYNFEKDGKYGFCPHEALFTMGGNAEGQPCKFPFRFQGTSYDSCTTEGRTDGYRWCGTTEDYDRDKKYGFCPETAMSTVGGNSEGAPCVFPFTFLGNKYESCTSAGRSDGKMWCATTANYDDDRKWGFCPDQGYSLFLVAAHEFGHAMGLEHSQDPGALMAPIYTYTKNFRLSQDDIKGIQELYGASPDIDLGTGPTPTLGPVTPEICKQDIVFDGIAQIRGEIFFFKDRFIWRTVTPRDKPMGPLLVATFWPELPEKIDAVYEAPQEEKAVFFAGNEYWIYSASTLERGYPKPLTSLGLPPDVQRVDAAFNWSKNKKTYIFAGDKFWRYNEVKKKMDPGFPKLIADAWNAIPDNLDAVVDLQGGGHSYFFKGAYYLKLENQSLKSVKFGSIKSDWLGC
Experimental: as §1

[4] = biological target: ACE2 (Homo sapiens, UniProt Q9BYF1); assay: Non-TMPRSS2 protease panel: ACE2
ACE2, sequence (Q9BYF1 18-805): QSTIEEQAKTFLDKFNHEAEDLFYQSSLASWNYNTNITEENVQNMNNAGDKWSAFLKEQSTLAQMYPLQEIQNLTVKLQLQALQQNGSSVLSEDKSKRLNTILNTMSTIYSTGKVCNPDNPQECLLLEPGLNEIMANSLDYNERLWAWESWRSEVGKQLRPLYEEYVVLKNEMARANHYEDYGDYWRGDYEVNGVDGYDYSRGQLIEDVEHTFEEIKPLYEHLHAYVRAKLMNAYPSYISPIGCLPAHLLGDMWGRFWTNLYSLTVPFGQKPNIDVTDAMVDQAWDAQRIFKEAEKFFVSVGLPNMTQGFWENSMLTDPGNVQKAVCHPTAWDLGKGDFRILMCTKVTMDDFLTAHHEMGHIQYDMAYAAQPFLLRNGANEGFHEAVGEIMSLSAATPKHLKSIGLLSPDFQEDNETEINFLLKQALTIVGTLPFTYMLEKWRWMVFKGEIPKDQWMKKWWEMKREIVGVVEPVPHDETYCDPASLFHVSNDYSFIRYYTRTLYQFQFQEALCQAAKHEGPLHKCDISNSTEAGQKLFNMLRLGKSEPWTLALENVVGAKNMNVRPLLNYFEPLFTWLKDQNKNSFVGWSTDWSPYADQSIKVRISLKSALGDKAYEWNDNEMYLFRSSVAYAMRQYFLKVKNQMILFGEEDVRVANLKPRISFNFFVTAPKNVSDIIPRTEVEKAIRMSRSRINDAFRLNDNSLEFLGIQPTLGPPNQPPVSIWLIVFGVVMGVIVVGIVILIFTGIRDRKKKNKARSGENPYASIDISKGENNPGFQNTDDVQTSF
Experimental: as §1

[5] = biological target: T3, Kallikrein 12 (Homo sapiens, UniProt Q9UKR0); assay: Non-TMPRSS2 protease panel: Kallikrein 12
T3 sequence (Q9UKR0 18-248): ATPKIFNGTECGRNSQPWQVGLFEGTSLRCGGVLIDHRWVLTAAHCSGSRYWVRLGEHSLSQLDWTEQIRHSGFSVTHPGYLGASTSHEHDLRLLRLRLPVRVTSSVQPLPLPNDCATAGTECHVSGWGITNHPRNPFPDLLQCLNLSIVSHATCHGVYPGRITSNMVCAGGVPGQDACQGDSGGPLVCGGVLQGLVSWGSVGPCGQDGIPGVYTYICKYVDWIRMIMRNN
Experimental: as §1

[6] = system: Trypsin; assay: Non-TMPRSS2 protease panel: Trypsin
Experimental: as §1

[7] = biological target: Kallikrein 7 (Homo sapiens, UniProt P49862); assay: Non-TMPRSS2 protease panel: Kallikrein 7
Kallikrein 7, sequence (P49862 30-253): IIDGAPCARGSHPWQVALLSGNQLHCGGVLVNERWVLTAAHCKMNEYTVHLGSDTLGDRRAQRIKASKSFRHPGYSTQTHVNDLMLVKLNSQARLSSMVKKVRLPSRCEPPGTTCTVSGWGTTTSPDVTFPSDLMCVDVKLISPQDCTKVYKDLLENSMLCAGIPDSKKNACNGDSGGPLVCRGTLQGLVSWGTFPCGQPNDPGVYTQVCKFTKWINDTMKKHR
Experimental: as §1

[8] = biological target: Furin (Homo sapiens, UniProt P09958); assay: Non-TMPRSS2 protease panel: Furin
Furin, sequence (P09958 108-794): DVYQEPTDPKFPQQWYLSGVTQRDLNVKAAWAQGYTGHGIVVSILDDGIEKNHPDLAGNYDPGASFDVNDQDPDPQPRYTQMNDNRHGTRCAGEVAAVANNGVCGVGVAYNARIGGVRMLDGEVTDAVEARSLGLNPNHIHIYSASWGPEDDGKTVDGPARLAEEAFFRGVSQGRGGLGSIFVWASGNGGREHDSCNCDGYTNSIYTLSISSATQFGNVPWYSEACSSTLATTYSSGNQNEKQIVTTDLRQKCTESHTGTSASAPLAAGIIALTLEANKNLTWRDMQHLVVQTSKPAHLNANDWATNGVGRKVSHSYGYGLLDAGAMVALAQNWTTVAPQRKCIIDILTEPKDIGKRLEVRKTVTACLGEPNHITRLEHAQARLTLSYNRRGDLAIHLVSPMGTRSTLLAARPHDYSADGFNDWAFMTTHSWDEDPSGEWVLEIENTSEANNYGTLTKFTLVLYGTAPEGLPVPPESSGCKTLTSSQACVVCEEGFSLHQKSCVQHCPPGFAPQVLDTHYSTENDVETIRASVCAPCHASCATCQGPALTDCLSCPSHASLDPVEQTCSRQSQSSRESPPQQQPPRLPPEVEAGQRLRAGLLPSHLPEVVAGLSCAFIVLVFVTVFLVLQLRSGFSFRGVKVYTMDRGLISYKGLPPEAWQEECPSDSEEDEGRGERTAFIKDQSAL
Experimental: as §1

[9] = biological target: T4, FVIIa (Homo sapiens, UniProt P08709); assay: Non-TMPRSS2 protease panel: FVIIa
T4 construct: Elastase, FVIIa, Fxa, FXIa
T4 sequence (P08709 213-466 limits assumed): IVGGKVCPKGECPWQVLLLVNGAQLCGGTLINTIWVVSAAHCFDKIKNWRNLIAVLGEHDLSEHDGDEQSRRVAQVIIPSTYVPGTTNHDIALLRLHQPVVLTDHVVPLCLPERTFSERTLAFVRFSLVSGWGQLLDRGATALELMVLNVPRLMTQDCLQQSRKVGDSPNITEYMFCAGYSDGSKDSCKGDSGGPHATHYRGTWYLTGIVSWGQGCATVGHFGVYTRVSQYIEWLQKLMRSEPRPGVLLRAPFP
T4 sequence (P08709 61-212 partner limits assumed): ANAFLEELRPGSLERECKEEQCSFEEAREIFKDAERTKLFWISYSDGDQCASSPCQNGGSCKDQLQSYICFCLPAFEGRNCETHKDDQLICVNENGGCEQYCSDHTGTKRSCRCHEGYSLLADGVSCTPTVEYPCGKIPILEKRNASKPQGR
Experimental: as §1

[10] = biological target: T5, Mpro (Severe acute respiratory syndrome coronavirus 2, UniProt P0DTD1); assay: Non-TMPRSS2 protease panel: Mpro
T5 construct: MMP 14, Mpro, Plasma Kallikrein
Experimental: as §1

[11] = biological target: Plasmin (Homo sapiens, UniProt P00747); assay: Non-TMPRSS2 protease panel: Plasmin
Plasmin, sequence (P00747 581-810 limits assumed, species assumed): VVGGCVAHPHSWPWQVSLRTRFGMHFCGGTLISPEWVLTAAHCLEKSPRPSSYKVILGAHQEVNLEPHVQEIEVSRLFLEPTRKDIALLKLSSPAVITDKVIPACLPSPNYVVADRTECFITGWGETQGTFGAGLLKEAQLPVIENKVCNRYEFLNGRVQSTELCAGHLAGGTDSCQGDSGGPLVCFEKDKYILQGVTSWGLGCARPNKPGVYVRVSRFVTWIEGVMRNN
Plasmin, sequence (P00747 97-580 partner limits assumed, species assumed): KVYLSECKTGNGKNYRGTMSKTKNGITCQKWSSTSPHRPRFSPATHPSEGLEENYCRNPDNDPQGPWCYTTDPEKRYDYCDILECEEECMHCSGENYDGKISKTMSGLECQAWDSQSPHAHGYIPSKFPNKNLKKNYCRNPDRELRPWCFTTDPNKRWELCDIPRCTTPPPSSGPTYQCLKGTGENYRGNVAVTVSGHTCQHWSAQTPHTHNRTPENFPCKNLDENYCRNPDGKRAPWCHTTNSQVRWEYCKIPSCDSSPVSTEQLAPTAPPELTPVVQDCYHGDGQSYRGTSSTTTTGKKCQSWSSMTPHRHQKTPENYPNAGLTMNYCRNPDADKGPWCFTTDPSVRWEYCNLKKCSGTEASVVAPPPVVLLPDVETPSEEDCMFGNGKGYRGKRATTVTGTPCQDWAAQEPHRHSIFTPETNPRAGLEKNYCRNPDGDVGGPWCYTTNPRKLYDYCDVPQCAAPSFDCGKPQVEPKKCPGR
Experimental: as §1

[12] = biological target: Thrombin a (Homo sapiens, UniProt P00734); assay: Non-TMPRSS2 protease panel: Thrombin a
Experimental: as §1

[13] = biological target: Kallikrein 1 (Homo sapiens, UniProt P06870); assay: Non-TMPRSS2 protease panel: Kallikrein 1
Kallikrein 1, sequence (P06870 25-262): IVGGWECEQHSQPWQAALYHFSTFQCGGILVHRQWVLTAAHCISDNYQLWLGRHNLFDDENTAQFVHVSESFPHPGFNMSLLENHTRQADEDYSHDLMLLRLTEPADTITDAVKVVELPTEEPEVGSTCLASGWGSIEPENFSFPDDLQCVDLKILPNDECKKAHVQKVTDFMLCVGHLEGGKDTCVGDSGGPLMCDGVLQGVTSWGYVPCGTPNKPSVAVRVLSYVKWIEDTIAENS
Experimental: as §1

[14] = biological target: T6, FXIa (Homo sapiens, UniProt P03951); assay: Non-TMPRSS2 protease panel: FXIa
T6 construct: FVIIa, Fxa, FXIa, Furin
T6 sequence (P03951 388-625 limits assumed): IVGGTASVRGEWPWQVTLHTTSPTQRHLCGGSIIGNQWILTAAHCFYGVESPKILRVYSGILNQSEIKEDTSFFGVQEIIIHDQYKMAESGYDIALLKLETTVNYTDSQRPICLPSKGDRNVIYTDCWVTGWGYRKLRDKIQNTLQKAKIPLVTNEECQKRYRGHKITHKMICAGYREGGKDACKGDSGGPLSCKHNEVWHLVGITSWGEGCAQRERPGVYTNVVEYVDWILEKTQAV
T6 sequence (P03951 19-387 partner limits assumed): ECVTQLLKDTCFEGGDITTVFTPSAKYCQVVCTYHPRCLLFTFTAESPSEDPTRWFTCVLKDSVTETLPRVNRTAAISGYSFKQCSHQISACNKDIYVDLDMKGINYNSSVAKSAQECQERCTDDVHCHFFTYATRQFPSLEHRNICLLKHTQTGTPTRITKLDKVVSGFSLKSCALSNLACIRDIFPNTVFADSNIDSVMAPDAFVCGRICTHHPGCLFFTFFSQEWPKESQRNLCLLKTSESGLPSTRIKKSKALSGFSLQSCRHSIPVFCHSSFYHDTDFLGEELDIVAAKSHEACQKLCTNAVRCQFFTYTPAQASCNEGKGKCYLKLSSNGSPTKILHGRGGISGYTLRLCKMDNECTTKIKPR
Experimental: as §1

Row | SMILES | IC50 [1] | IC50 [2] | IC50 [3] | IC50 [4] | IC50 [5] | IC50 [6] | IC50 [7] | IC50 [8] | IC50 ([9]; Factor VIIa) | IC50 [10] | IC50 [11] | IC50 [12] | IC50 [13] | IC50 ([14]; Factor XIa) | IC50 ([9]; FVIIa) | IC50 ([14]; FXIa)
1 | COc1ccc2nc(C(Cc3cccc(C(=N)N)c3)NS(=O)(=O)c3ccccc3)sc2c1 (centres unmarked) [Compound 11, 3-[2-Benzenesulfonamido-2-(6-methoxy-1,3-benzothiazol-2-yl)ethyl]benzene-1-carboximidamide] | > 10 µM | > 10 µM | > 10 µM | > 10 µM | > 10 µM | > 10 µM | > 10 µM | > 10 µM | > 10 µM | > 10 µM | > 10 µM | > 10 µM | < 10 µM | > 10 µM |  | 
2 | N=C(N)c1cccc(CC(NS(=O)(=O)c2ccccc2)c2nc3ccccc3s2)c1 (racemic) [1 (racemic mixture, batch 1), 3-[2-Benzenesulfonamido-2-(1,3-benzothiazol-2-yl)ethyl]benzene-1-carboximidamide] | > 10 µM | > 10 µM | > 10 µM | > 10 µM | > 10 µM | > 10 µM | > 10 µM | > 10 µM |  | > 10 µM | > 10 µM | > 10 µM | < 10 µM |  | > 10 µM | > 10 µM
3 | N=C(N)c1cccc(C[C@H](NS(=O)(=O)c2ccccc2)c2nnco2)c1 (single isomer, unassigned) [Compound 2 (enantiomer 1, batch 1), 3-[2-Benzenesulfonamido-2-(1,3,4-oxadiazol-2-yl)ethyl]benzene-1-carboximidamide] | > 10 µM | > 10 µM | > 10 µM | > 10 µM | > 10 µM | > 10 µM | > 10 µM | > 10 µM |  | > 10 µM | > 10 µM | > 10 µM | > 10 µM |  | > 10 µM | > 10 µM
4 | N=C(N)c1cccc(CC(NS(=O)(=O)c2cccc(-c3ccc(Cl)cc3Cl)c2)c2nc3ccccc3s2)c1 (racemic) [3 (racemic), 3-[2-(1,3-Benzothiazol-2-yl)-2-{2′,4′-dichloro-[1,1′-biphenyl]-3-sulfonamido}ethyl]benzene-1-carboximidamide] | > 10 µM | < 10 µM | < 10 µM | > 10 µM | > 10 µM | < 10 µM | > 10 µM | > 10 µM |  | > 10 µM | > 10 µM | < 10 µM | > 10 µM |  | > 10 µM | > 10 µM
